From paper PMC8911927, “Synthesis and Biological Evaluation of 1-(2-(6-Methoxynaphthalen-2-yl)-6-methylnicotinoyl)-4-Substituted Semicarbazides/Thiosemicarbazides as Anti-Tumor Nur77 Modulators” (Molecules, 2022)

What was measured:
MCF-7 cells = test: MTT cytotoxicity, MCF-7; format: cell-based, human; details: mean values
Description: (§1) All of the cell lines were obtained from the American Type Culture Collection (ATCC, Manassas, VA, USA) and grown in DMEM or RPMI culture medium containing 10% fetal bovine serum (v/v) in 5% CO2 at 37 °C.
(§2) Confluent cells in good state were cultured in 96-well plates (5–10 × 10^4 cells/mL). After cells were attached to the plate, compounds with various concentrations were applied at 37 °C for 72 h. Then, the cells were incubated with 10 μL of 5 mg/mL MTT reagent at 37 °C for 4 h. The supernatant was removed, and the cells were dissolved in 100 μL dimethyl sulfoxide and shaken for 5 min. Finally, the light absorption (OD) of the dissolved cells was measured at […].

HGC-27 cells [1] = test: MTT cytotoxicity, HGC-27; format: cell-based, human; details: 72 h, mean values
Description: as §1, §2

HeLa cells = test: MTT cytotoxicity, HeLa; format: cell-based, human; details: 72 h, mean values
Description: as §1, §2

A875 cells = test: MTT cytotoxicity, A875; format: cell-based; details: read-out: Cancer Cells IC50, A875
Description: (§3) All of the cell lines were obtained from the American Type Culture Collection (ATCC, Manassas, VA, USA) and grown in DMEM or RPMI culture medium containing 10% fetal bovine serum (v/v) in 5% CO2 at 37 °C. Confluent cells in good state were cultured in 96-well plates (5–10 × 10^4 cells/mL). After cells were attached to the plate, compounds with various concentrations were applied at 37 °C for 72 h. […] The supernatant was removed, and the cells were dissolved in 100 μL dimethyl sulfoxide and shaken for 5 min.

HGC-27 cells [2] = test: Flow cytometry cell cycle assay; format: cell-based, human; set-up: dose or concentration left out as unconfirmed; details: 8 h of treatment
Description: Flow cytometry analysis was applied for cell cycle detection. Firstly, HGC-27 cell was adjusted to 1 × 10^6/mL, inoculated into a six-well plate and placed in an incubator at 37 °C containing 5% CO2 saturated humidity overnight. After the cells were fully attached to the plate, […] 9u and 9h were administrated to the cells for 8 h. After cells were collected and fixed with 70% ethanol, DAPI was applied to stain the cells at the final concentration of 1 μg/mL; subsequently, on-board testing by flow cytometry (Cytoflex S (Beckman Coulter, Brea, CA, USA)) was conducted.

HGC-27 cells [3] = test: Colony formation assay; format: cell-based, human; details: treatment for two weeks, 5 μM and 10 μM, dose-dependent
Description: HGC-27 cells were cultured in a six-well plate (500 cells/well) and treated with 9u and 9h in 10% serum medium for two weeks, then fixed with methanol at room temperature and stained with 0.1% crystal violet, and images were scanned with a scanner.

cleaved PARP = test: Western blot of cleaved PARP; format: cell-based, human; details: HGC-27 cells, different times and concentrations, 24 h
Description: Equal amounts of the lysates were electrophoresed on 10% SDS-PAGE gel and transferred onto PVDF membranes. After blocked with 5% nonfat milk in TBST (50 mM Tris-HCl (pH 7.4), 150 mM NaCl and 0.1% Tween 20) for 1 h, the membranes were incubated with various primary antibodies overnight and secondary antibodies for 3 h, finally detected using an ECL system. The blots were captured with ChemiDoc XRS+System (Bio-Rad, Hercules, CA, USA).

LO2 cells = test: MTT cytotoxicity, LO2 normal cells; format: cell-based
Description: as §3

A549 cells = test: MTT cytotoxicity, A549; format: cell-based; details: read-out: Cancer Cells IC50, A549
Description: as §3

MRC-5 cells = test: MTT cytotoxicity, MRC-5 normal cells; format: cell-based
Description: as §3

MDA-MB231 cells = test: MTT cytotoxicity, MDA-MB231; format: cell-based; details: read-out: Cancer Cells IC50, MDA-MB231
Description: as §3

HepG2 cells = test: MTT cytotoxicity, HepG2; format: cell-based; details: read-out: Cancer Cells IC50, HepG2
Description: as §3

H460 cells = test: MTT cytotoxicity, H460; format: cell-based; details: read-out: Cancer Cells IC50, H460
Description: as §3

Row | Molecule | IC50 (MCF-7 cells; 72 h) [µM] | IC50 (HGC-27 cells [1]) [µM] | IC50 (HeLa cells) [µM] | also measured
1 | 4-(3,5-Difluorophenyl)-1-(2-(6-methoxynaphthalen-2-yl)-6-methylnicotinoyl)semicarbazide [Compound 9j] | 16.3 ± 0.34 | 16.6 ± 0.44 | 12.1 ± 0.21 | 
2 | 4-Benzyl-1-(2-(6-methoxynaphthalen-2-yl)-6-methylnicotinoyl)semicarbazide [Compound 9c] | 21.1 ± 0.52 | 23.16 ± 0.2 | 25.3 ± 0.45 | 
3 | COc1ccc2cc(-c3ccc(C(=O)NNC(=O)NC4CCCCC4)c(C)n3)ccc2c1 [Compound 9b] |  |  |  | IC50 (MCF-7 cells; Homo sapiens, MCF7, 72 h): 41.5 ± 0.78 µM; IC50 (HGC-27 cells [1]; Homo sapiens): 50.26 ± 0.2 µM; IC50 (HeLa cells; Homo sapiens): 30.5 ± 0.4 µM; melting point: 236 to 237 °C
4 | 4-(2-Chlorophenyl)-1-(2-(6-methoxynaphthalen-2-yl)-6-methylnicotinoyl)thiosemicarbazide [Compound 9u] | 6.44 ± 0.07 | 4.56 ± 0.09 | 6.1 ± 0.5 | IC50 (A875 cells): 15.7 ± 0.11 µM; Effect on cell cycle (HGC-27 cells [2]): induced cell cycle blockage in G2-M phase; Colony formation of HGC-27 cells (HGC-27 cells [3]): completely inhibited colony formation; PARP cleavage (cleaved PARP): induce the PARP cleavage in a dose-dependent and time-dependent manner; IC50 (LO2 cells): 41 ± 0.7 µM; IC50 (A549 cells): 11.2 ± 0.46 µM; IC50 (MRC-5 cells): 22.1 ± 0.11 µM; IC50 (MDA-MB231 cells): 21 ± 0.01 µM; IC50 (HepG2 cells): 7.2 ± 0.11 µM; IC50 (H460 cells): 14 ± 0.38 µM
5 | 4-Benzyl-1-(2-(6-methoxynaphthalen-2-yl)-6-methylnicotinoyl)thiosemicarbazide [Compound 9n] | 21.1 ± 0.32 | 23.16 ± 0.07 | 25.33 ± 0.1 | 
6 | 4-(3,4-Dichlorophenyl)-1-(2-(6-methoxynaphthalen-2-yl)-6-methylnicotinoyl)semicarbazide [Compound 9k] | 11.6 ± 0.45 | 12.4 ± 0.5 | 10.1 ± 0.69 | 
7 | 4-(2,4-Difluorophenyl)-1-(2-(6-methoxynaphthalen-2-yl)-6-methylnicotinoyl)thiosemicarbazide [Compound 9v] | 11.6 ± 0.56 | 12.4 ± 0.25 | 10.1 ± 0.11 | 
8 | 1-(2-(6-Methoxynaphthalen-2-yl)-6-methylnicotinoyl)-4-p-tolylthiosemicarbazide [Compound 9s] | 19.3 ± 0.3 | 10.4 ± 0.19 | 16.12 ± 0.07 | 
9 | 1-(2-(6-Methoxynaphthalen-2-yl)-6-methylnicotinoyl)-4-(4-methoxyphenyl)semicarbazide [Compound 9g] | 18.4 ± 0.21 | 19.4 ± 0.63 | 20.2 ± 0.31 | 
10 | 1-(2-(6-Methoxynaphthalen-2-yl)-6-methylnicotinoyl)-4-p-tolylsemicarbazide [Compound 9f] | 23.3 ± 0.1 | 29.4 ± 0.31 | 24.2 ± 0.61 | 
11 | 1-(2-(6-Methoxynaphthalen-2-yl)-6-methylnicotinoyl)-4-phenylthiosemicarbazide [Compound 9p] | 23.34 ± 0.21 | 19.24 ± 0.09 | 14.7 ± 0.31 | 
12 | 1-(2-(6-methoxynaphthalen-2-yl)-6-methylnicotinoyl)-4-m-tolylsemicarbazide [Compound 9e] | 33.34 ± 0.12 | 49.24 ± 0.26 | 24.65 ± 0.24 | 
13 | 4-Cyclopentyl-1-(2-(6-methoxynaphthalen-2-yl)-6-methylnicotinoyl)semicarbazide [Compound 9a] | 60.26 ± 0.11 | 38.39 ± 0.32 | 88.39 ± 0.22 | 
14 | 4-(3,5-Dimethylphenyl)-1-(2-(6-methoxynaphthalen-2-yl)-6-methylnicotinoyl)semicarbazide [Compound 9i] | 21.4 ± 0.25 | 19.7 ± 0.31 | 20.1 ± 0.44 | 
15 | CCCCCCNC(=S)NNC(=O)c1ccc(C)nc1-c1ccc2cc(OC)ccc2c1 [Compound 9l, 4-Hexyl-1-(2-(6-methoxynaphthalen-2-yl)-6-methylnicotinoyl)thiosemicarbazide] |  |  |  | IC50 (MCF-7 cells; Homo sapiens, MCF7, 72 h): 40.2 ± 0.33 µM; IC50 (HGC-27 cells [1]; Homo sapiens): 38.1 ± 0.21 µM; IC50 (HeLa cells; Homo sapiens): 45.4 ± 0.11 µM; melting point: 195 to 196 °C
16 | 4-Cyclohexyl-1-(2-(6-methoxynaphthalen-2-yl)-6-methylnicotinoyl)thiosemicarbazide [Compound 9m] | 35.4 ± 0.41 | 30.2 ± 0.61 | 34.5 ± 0.37 | 
17 | 1-(2-(6-Methoxynaphthalen-2-yl)-6-methylnicotinoyl)-4-o-tolylsemicarbazide [Compound 9d] | 35.2 ± 0.6 | 39.1 ± 0.72 | 20.7 ± 0.26 | 
18 | 1-(2-(6-Methoxynaphthalen-2-yl)-6-methylnicotinoyl)-4-o-tolylthiosemicarbazide [Compound 9q] | 23.3 ± 0.21 | 19.4 ± 0.69 | 14.2 ± 0.22 | 
19 | 4-(3,4-Dichlorophenyl)-1-(2-(6-methoxynaphthalen-2-yl)-6-methylnicotinoyl)thiosemicarbazide [Compound 9w] | 10.9 ± 0.42 | 16.4 ± 0.31 | 10.7 ± 0.34 | 
20 | 1-(2-(6-Methoxynaphthalen-2-yl)-6-methylnicotinoyl)-4-(4-methoxyphenyl)thiosemicarbazide [Compound 9t] | 11.4 | 16.7 | 10.1 ± 0.61 | 
21 | 1-(2-(6-Methoxynaphthalen-2-yl)-6-methylnicotinoyl)-4-m-tolylthiosemicarbazide [Compound 9r] | 18.4 ± 0.41 | 19.4 ± 0.11 | 20.2 ± 0.24 | 
22 | 1-(2-(6-Methoxynaphthalen-2-yl)-6-methylnicotinoyl)-4-phenethylthiosemicarbazide [Compound 9o] | 35.2 ± 0.09 | 39.12 ± 0.21 | 20.7 ± 0.22 | 
23 | N.N.[Cl][Pt][Cl] [Cisplatin, reference compound] | 10.5 ± 0.31 | 8.9 ± 0.2 | 12.45 ± 0.11 | IC50 (A875 cells): 21.2 ± 0.08 µM; IC50 (LO2 cells): > 50 µM; IC50 (A549 cells): 9.3 ± 0.11 µM; IC50 (MRC-5 cells): > 50 µM; IC50 (MDA-MB231 cells): 20.2 ± 0.25 µM; IC50 (HepG2 cells): 15.2 ± 0.29 µM; IC50 (H460 cells): 16.6 ± 0.09 µM
